According to patent US20230102554A1 (GB002, INC., priority 2019, published 2023):

Tests used:
[1] = biological target: T1, Human PDGFRα, cytoplasmic domain (GST-PDGFRα) (Homo sapiens, UniProt P16234); experiment: Human PDGFRα biochemical inhibition assay (off-chip Mobility Shift Assay)
T1 construct: made in house

[2] = biological target: T2, Human PDGFRβ, cytoplasmic domain (GST-PDGFRβ) (Homo sapiens, UniProt P09619); experiment: Human PDGFRβ biochemical inhibition assay (off-chip Mobility Shift Assay)
T2 construct: made in house
Summary of the method: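 GST-tagged cytoplasmic domain (aa 557-1106) from baculovirus was incubated 1 h at room temperature with compound, CSKtide, ATP at Km and Mg²⁺ in HEPES buffer, pH 7.5. Phosphorylated and unphosphorylated peptide were separated by off-chip mobility shift, and the product ratio P/(P+S) gave percent inhibition.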

T2 sequence (P09619 with tags, fused parts or gaps): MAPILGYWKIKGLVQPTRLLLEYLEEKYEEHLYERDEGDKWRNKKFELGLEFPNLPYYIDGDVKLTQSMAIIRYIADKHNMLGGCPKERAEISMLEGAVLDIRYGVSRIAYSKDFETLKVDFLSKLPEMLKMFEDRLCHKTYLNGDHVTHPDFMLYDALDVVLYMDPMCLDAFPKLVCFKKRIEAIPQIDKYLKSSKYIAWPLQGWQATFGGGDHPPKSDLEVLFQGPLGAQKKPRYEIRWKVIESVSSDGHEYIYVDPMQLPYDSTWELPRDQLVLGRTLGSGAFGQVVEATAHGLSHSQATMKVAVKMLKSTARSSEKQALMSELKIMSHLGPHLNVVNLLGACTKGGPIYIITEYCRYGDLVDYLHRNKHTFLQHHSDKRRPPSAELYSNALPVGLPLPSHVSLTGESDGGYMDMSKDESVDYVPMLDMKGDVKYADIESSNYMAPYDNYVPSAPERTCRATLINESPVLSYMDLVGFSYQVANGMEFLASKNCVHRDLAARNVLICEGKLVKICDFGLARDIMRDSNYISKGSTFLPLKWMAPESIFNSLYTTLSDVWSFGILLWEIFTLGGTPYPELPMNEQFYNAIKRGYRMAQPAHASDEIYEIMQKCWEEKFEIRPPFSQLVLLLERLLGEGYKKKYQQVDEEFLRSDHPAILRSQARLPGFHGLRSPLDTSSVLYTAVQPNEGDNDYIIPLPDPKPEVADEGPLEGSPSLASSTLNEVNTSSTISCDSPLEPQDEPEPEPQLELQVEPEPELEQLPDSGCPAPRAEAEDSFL
T1 sequence (P16234 550-1089 T674I): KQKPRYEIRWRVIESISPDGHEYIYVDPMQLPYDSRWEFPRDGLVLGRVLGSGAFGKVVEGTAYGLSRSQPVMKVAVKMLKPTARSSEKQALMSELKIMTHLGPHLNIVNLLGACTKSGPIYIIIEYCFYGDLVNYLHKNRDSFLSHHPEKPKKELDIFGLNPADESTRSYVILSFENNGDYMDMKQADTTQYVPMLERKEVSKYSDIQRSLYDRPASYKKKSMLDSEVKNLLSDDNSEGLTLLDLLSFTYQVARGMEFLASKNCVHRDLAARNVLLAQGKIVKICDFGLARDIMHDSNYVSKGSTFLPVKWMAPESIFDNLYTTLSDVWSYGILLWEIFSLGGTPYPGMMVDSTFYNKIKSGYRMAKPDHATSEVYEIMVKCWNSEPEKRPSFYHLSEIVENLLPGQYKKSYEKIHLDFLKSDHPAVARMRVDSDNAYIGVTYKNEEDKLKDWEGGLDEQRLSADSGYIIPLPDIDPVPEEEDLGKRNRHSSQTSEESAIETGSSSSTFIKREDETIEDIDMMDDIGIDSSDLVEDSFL

Cc1cc(C(=O)Nc2cccc([C@H](C)Nc3cnc4cnn(C)c4n3)c2)ccc1C(=O)OCC(C)C [Compound 263, isobutyl (S)-2-methyl-4-((3-(1-((1-methyl-1H-pyrazolo[3,4-b]pyrazin-6-yl)amino)ethyl)phenyl)carbamoyl)benzoate]
IC50 [1]: < 300 nM
IC50 [2]: 300 to 1000 nM

Cc1cc(C(=O)Nc2cccc([C@H](C)Nc3cnc4cnn(C)c4n3)c2)ccc1C(=O)OCCN1CCOCC1 [Compound 264, 2-morpholinoethyl (S)-2-methyl-4-((3-(1-((1-methyl-1H-pyrazolo[3,4-b]pyrazin-6-yl)amino)ethyl)phenyl)carbamoyl) benzoate]
IC50 [1]: < 300 nM
IC50 [2]: < 300 nM

CCn1cnc2ncc(C(=O)Nc3cccc([C@H](C)Nc4cnc5cnn(C)c5n4)c3)cc21 [Compound 265, (S)-1-ethyl-N-(3-(1-((1-methyl-1H-pyrazolo[3,4-b]pyrazin-6-yl)amino)ethyl)phenyl)-1H-imidazo[4,5-b]pyridine-6-carboxamide]
IC50 [1]: < 300 nM
IC50 [2]: < 300 nM

Cc1cc(C(=O)Nc2cccc([C@H](C)Nc3cnc4cnn(C)c4n3)c2)ccc1C(=O)OCCN [Compound 266, 2-aminoethyl (S)-2-methyl-4-((3-(1-((1-methyl-1H-pyrazolo[3,4-b]pyrazin-6-yl)amino)ethyl)phenyl)carbamoyl) benzoate]
IC50 [1]: < 300 nM
IC50 [2]: < 300 nM

Cc1cc(C(=O)Nc2cccc([C@H](C)Nc3cnc4cnn(C)c4n3)c2)ccc1C(=O)OCc1oc(=O)oc1C [Compound 267, (5-methyl-2-oxo-1,3-dioxol-4-yl)methyl (S)-2-methyl-4-((3-(1-((1-methyl-1H-pyrazolo[3,4-b]pyrazin-6-yl)amino)ethyl)phenyl)carbamoyl)benzoate]
IC50 [1]: < 300 nM
IC50 [2]: < 300 nM

Cc1cc(C(=O)Nc2cccc([C@H](C)Nc3cnc4cnn(C)c4n3)c2)ccc1C(=O)OCCN1CCCC1 [Compound 268, 2-(pyrrolidin-1-yl)ethyl (S)-2-methyl-4-((3-(1-((1-methyl-1H-pyrazolo[3,4-b]pyrazin-6-yl)amino)ethyl)phenyl)carbamoyl) benzoate]
IC50 [1]: < 300 nM
IC50 [2]: < 300 nM

CSc1ccc(C(=O)Nc2cccc([C@H](C)Nc3cnc4cnn(C)c4n3)c2)cc1SC [Compound 269, (S)-N-(3-(1-((1-methyl-1H-pyrazolo[3,4-b]pyrazin-6-yl)amino)ethyl)phenyl)-3,4-bis(methylthio)benzamide]
IC50 [1]: < 300 nM
IC50 [2]: < 300 nM

Cc1cncc(C(=O)Nc2cccc([C@H](C)Nc3cnc4cnn(-c5ccccc5)c4n3)c2)c1 [Compound 271, (S)-5-methyl-N-(3-(1-((1-phenyl-1H-pyrazolo[3,4-b]pyrazin-6-yl)amino)ethyl)phenyl)nicotinamide]
IC50 [1]: < 300 nM
IC50 [2]: < 300 nM

Cc1cncc(C(=O)Nc2cccc([C@H](C)Nc3cnc4cnn(-c5ccccn5)c4n3)c2)c1 [Compound 272, (S)-5-methyl-N-(3-(1-((1-(pyridin-2-yl)-1H-pyrazolo[3,4-b]pyrazin-6-yl)amino)ethyl)phenyl)nicotinamide]
IC50 [1]: < 300 nM
IC50 [2]: < 300 nM

Cc1cncc(C(=O)Nc2cccc([C@H](C)Nc3cnc4cnn(-c5cccnc5)c4n3)c2)c1 [Compound 273, (S)-5-methyl-N-(3-(1-((1-(pyridin-3-yl)-1H-pyrazolo[3,4-b]pyrazin-6-yl)amino)ethyl)phenyl)nicotinamide]
IC50 [1]: < 300 nM
IC50 [2]: < 300 nM

Cc1cncc(C(=O)Nc2cccc([C@H](C)Nc3cnc4cn(C)nc4n3)c2)c1 [Compound 274, (S)-5-methyl-N-(3-(1-((2-methyl-2H-pyrazolo[3,4-b]pyrazin-6-yl)amino)ethyl)phenyl)nicotinamide]
IC50 [1]: < 300 nM
IC50 [2]: ≥ 1000 nM

Cc1cncc(C(=O)Nc2cccc([C@H](C)Nc3cnc4cn(CC5CC5)nc4n3)c2)c1 [Compound 275, (S)-N-(3-(1-((2-(cyclopropylmethyl)-2H-pyrazolo[3,4-b]pyrazin-6-yl)amino)ethyl)phenyl)-5-methylnicotinamide]
IC50 [1]: < 300 nM
IC50 [2]: < 300 nM

Cc1cncc(C(=O)Nc2cccc([C@H](C)Nc3cnc4cn(CC(C)C)nc4n3)c2)c1 [Compound 276, (S)-N-(3-(1-((2-isobutyl-2H-pyrazolo[3,4-b]pyrazin-6-yl)amino)ethyl)phenyl)-5-methylnicotinamide]
IC50 [1]: 300 to 1000 nM
IC50 [2]: 300 to 1000 nM

Cc1cncc(C(=O)Nc2cccc([C@H](C)Nc3cnc4cn(CCF)nc4n3)c2)c1 [Compound 277, (S)-N-(3-(1-((2-(2-fluoroethyl)-2H-pyrazolo[3,4-b]pyrazin-6-yl)amino)ethyl)phenyl)-5-methylnicotinamide]
IC50 [1]: < 300 nM
IC50 [2]: < 300 nM

Cc1cncc(C(=O)Nc2cccc([C@H](C)Nc3cnc4cn(CCN5CCOCC5)nc4n3)c2)c1 [Compound 278, (S)-5-methyl-N-(3-(1-((2-(2-morpholinoethyl)-2H-pyrazolo[3,4-b]pyrazin-6-yl)amino)ethyl)phenyl) nicotinamide]
IC50 [1]: 300 to 1000 nM
IC50 [2]: ≥ 1000 nM

CCn1cc2ncc(N[C@@H](C)c3cccc(NC(=O)c4cncc(OC)c4)c3)nc2n1 [Compound 279, (S)-N-(3-(1-((2-ethyl-2H-pyrazolo[3,4-b]pyrazin-6-yl)amino)ethyl)phenyl)-5-methoxynicotinamide]
IC50 [1]: < 300 nM
IC50 [2]: 300 to 1000 nM

CCn1cc2ncc(N[C@@H](C)c3cccc(NC(=O)c4cncc(C(C)(C)F)c4)c3)nc2n1 [Compound 280, (S)-N-(3-(1-((2-ethyl-2H-pyrazolo[3,4-b]pyrazin-6-yl)amino)ethyl)phenyl)-5-(2-fluoropropan-2-yl)nicotinamide]
IC50 [1]: < 300 nM
IC50 [2]: < 300 nM

CCn1cc2ncc(N[C@@H](C)c3cccc(NC(=O)c4cncc(Cl)c4)c3)nc2n1 [Compound 281, (S)-5-chloro-N-(3-(1-((2-ethyl-2H-pyrazolo[3,4-b]pyrazin-6-yl)amino)ethyl)phenyl) nicotinamide]
IC50 [1]: < 300 nM
IC50 [2]: 300 to 1000 nM

CCn1cc2ncc(N[C@@H](C)c3cccc(NC(=O)c4ccc(OC(F)(F)F)nc4)c3)nc2n1 [Compound 282, (S)-N-(3-(1-((2-ethyl-2H-pyrazolo[3,4-b]pyrazin-6-yl)amino)ethyl)phenyl)-6-(trifluoromethoxy)nicotinamide]
IC50 [1]: < 300 nM
IC50 [2]: 300 to 1000 nM

CCn1cc2ncc(N[C@@H](C)c3cccc(NC(=O)c4ccc(C5CC5)nc4)c3)nc2n1 [Compound 283, (S)-6-cyclopropyl-N-(3-(1-((2-ethyl-2H-pyrazolo[3,4-b]pyrazin-6-yl)amino)ethyl)phenyl)nicotinamide]
IC50 [1]: < 300 nM
IC50 [2]: < 300 nM

CCn1cc2ncc(N[C@@H](C)c3cccc(NC(=O)c4ccc(C(F)(F)F)nc4)c3)nc2n1 [Compound 284, (S)-N-(3-(1-((2-ethyl-2H-pyrazolo[3,4-b]pyrazin-6-yl)amino)ethyl)phenyl)-6-(trifluoromethyl)nicotinamide]
IC50 [1]: 300 to 1000 nM
IC50 [2]: 300 to 1000 nM

CCn1cc2ncc(N[C@@H](C)c3cccc(NC(=O)c4ccc(OC)nc4)c3)nc2n1 [Compound 285, (S)-N-(3-(1-((2-ethyl-2H-pyrazolo[3,4-b]pyrazin-6-yl)amino)ethyl)phenyl)-6-methoxynicotinamide]
IC50 [1]: 300 to 1000 nM
IC50 [2]: ≥ 1000 nM

CCOc1ccc(C(=O)Nc2cccc([C@H](C)Nc3cnc4cn(CC)nc4n3)c2)cn1 [Compound 286, (S)-6-ethoxy-N-(3-(1-((2-ethyl-2H-pyrazolo[3,4-b]pyrazin-6-yl)amino)ethyl)phenyl) nicotinamide]
IC50 [1]: < 300 nM
IC50 [2]: 300 to 1000 nM

CCn1cc2ncc(N[C@@H](C)c3cccc(NC(=O)c4ccc(OC(C)C)nc4)c3)nc2n1 [Compound 287, (S)-N-(3-(1-((2-ethyl-2H-pyrazolo[3,4-b]pyrazin-6-yl)amino)ethyl)phenyl)-6-isopropoxynicotinamide]
IC50 [1]: < 300 nM
IC50 [2]: < 300 nM

CCn1cc2ncc(N[C@@H](C)c3cccc(NC(=O)c4cnc(C(F)(F)F)c(C)c4)c3)nc2n1 [Compound 288, (S)-N-(3-(1-((2-ethyl-2H-pyrazolo[3,4-b]pyrazin-6-yl)amino)ethyl)phenyl)-5-methyl-6-(trifluoromethyl)nicotinamide]
IC50 [1]: < 300 nM
IC50 [2]: < 300 nM

CCn1cc2ncc(N[C@@H](C)c3cccc(NC(=O)c4cnc(C#N)c(C)c4)c3)nc2n1 [Compound 289, (S)-6-cyano-N-(3-(1-((2-ethyl-2H-pyrazolo[3,4-b]pyrazin-6-yl)amino)ethyl)phenyl)-5-methylnicotinamide]
IC50 [1]: < 300 nM
IC50 [2]: 300 to 1000 nM

CCn1cc2ncc(N[C@@H](C)c3cccc(NC(=O)c4cnc(OC)c(C)c4)c3)nc2n1 [Compound 290, (S)-N-(3-(1-((2-ethyl-2H-pyrazolo[3,4-b]pyrazin-6-yl)amino)ethyl)phenyl)-6-methoxy-5-methylnicotinamide]
IC50 [1]: < 300 nM
IC50 [2]: < 300 nM

CCn1cc2ncc(N[C@@H](C)c3cccc(NC(=O)c4ccc(C5CC5)s4)c3)nc2n1 [Compound 291, (S)-5-cyclopropyl-N-(3-(1-((2-ethyl-2H-pyrazolo[3,4-b]pyrazin-6-yl)amino)ethyl)phenyl)thiophene-2-carboxamide]
IC50 [1]: < 300 nM
IC50 [2]: < 300 nM

CCn1cc2ncc(N[C@@H](C)c3cccc(NC(=O)c4ccc(C(F)F)s4)c3)nc2n1 [Compound 292, (S)-5-(difluoromethyl)-N-(3-(1-((2-ethyl-2H-pyrazolo[3,4-b]pyrazin-6-yl)amino)ethyl)phenyl)thiophene-2-carboxamide]
IC50 [1]: < 300 nM
IC50 [2]: < 300 nM

CCn1cc2ncc(N[C@@H](C)c3cccc(NC(=O)c4ccc(Cl)s4)c3)nc2n1 [Compound 293, (S)-5-chloro-N-(3-(1-((2-ethyl-2H-pyrazolo[3,4-b]pyrazin-6-yl)amino)ethyl)phenyl)thiophene-2-carboxamide]
IC50 [1]: < 300 nM
IC50 [2]: < 300 nM
